Data taken from PubChem BioAssay AID248 (DTP/NCI, 2004).
“And” between values parts separate entries of the source, which are not always exact repeats. Equal entries are not always repeated. Inconclusive results and toxic doses are left out. Cut-off read from the data, not from the text of the source: active = T/C of 150% or more; inactive = T/C below 125%.

System: L1210 leukemia ip in BDF1 mice, survival T/C
Assay: NCI In Vivo Anticancer Drug Screen. Data for tumor model L1210 Leukemia (intraperitoneal) in B6D2F1 (BDF1) mice
Conditions: endpoint: mean survival time, higher = longer survival
Method in brief: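 Read-out is survival time, reported as the treated-group measurement over the vehicle-control measurement.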

[1] = dose: 200.0 mg/kg/injection, schedule: Q01DX009 (ip), vehicle: Klucel (hydroxypropylcellulose) (HPC)
[2] = dose: 100.0 mg/kg/injection, schedule: Q01DX001 (ip), vehicle: saline
[3] = dose: 200.0 mg/kg/injection, schedule: Q01DX001 (ip), vehicle: saline
[4] = dose: 400.0 mg/kg/injection, schedule: Q01DX001 (ip), vehicle: saline
[5] = dose: 100.0 mg/kg/injection, schedule: Q04DX003 (ip), vehicle: Klucel (hydroxypropylcellulose) (HPC)
[6] = dose: 200.0 mg/kg/injection, schedule: Q04DX003 (ip), vehicle: Klucel (hydroxypropylcellulose) (HPC)
[7] = dose: 400.0 mg/kg/injection, schedule: Q04DX003 (ip), vehicle: Klucel (hydroxypropylcellulose) (HPC)
[8] = dose: 100.0 mg/kg/injection, schedule: Q01DX009 (ip), vehicle: saline with Tween-80
[9] = dose: 200.0 mg/kg/injection, schedule: Q01DX009 (ip), vehicle: saline with Tween-80
[10] = dose: 400.0 mg/kg/injection, schedule: Q01DX009 (ip), vehicle: saline with Tween-80

Measured: T/C

CC(=O)C1CCc2c(O)c3c(c(O)c2C1)C(=O)c1ccccc1C3=O (stereo unspecified)
inactive: dose: 87.5 mg/kg/injection, schedule: Q04DX003 (ip), vehicle: saline with Tween-80 94 % of control | dose: 175.0 mg/kg/injection, schedule: Q04DX003 (ip), vehicle: saline with Tween-80 91 % of control | dose: 350.0 mg/kg/injection, schedule: Q04DX003 (ip), vehicle: saline with Tween-80 94 % of control

CN(C)CCNCc1ccccc1
inactive: dose: 44.4 mg/kg/injection, schedule: Q01DX001 (ip), vehicle: saline 95 % of control and 98 % of control | dose: 66.7 mg/kg/injection, schedule: Q01DX001 (ip), vehicle: saline 96 % of control and 102 % of control | dose: 75.0 mg/kg/injection, schedule: Q01DX001 (ip), vehicle: saline 98 % of control | dose: 150.0 mg/kg/injection, schedule: Q01DX001 (ip), vehicle: saline 91 % of control and 94 % of control | dose: 300.0 mg/kg/injection, schedule: Q01DX001 (ip), vehicle: saline 95 % of control

Cc1c(NC(=O)Nc2cccc(C(F)(F)F)c2)c(=O)n(-c2ccccc2)n1C
inactive: dose: 25.0 mg/kg/injection, schedule: Q01DX009 (ip), vehicle: Klucel (hydroxypropylcellulose) (HPC) 88 % of control | dose: 50.0 mg/kg/injection, schedule: Q01DX009 (ip), vehicle: Klucel (hydroxypropylcellulose) (HPC) 86 % of control | [1] 96 % of control

CCOC(=O)C1=NN(c2ccccc2)C(=O)C1N=Nc1ccc(S(=O)(=O)Nc2ncccn2)cc1 (stereo unspecified)
inactive: [2] 98 % of control | [3] 96 % of control | [4] 101 % of control

C1=Nc2c(ccc3ccccc23)CS1
inactive: dose: 100.0 mg/kg/injection, schedule: Q04DX002 (ip), vehicle: other 93 % of control

Cc1ccc(S(=O)(=O)OCC2CCC(COS(=O)(=O)c3ccc(C)cc3)O2)cc1 (stereo unspecified)
inactive: [5] 103 % of control | [6] 100 % of control

CCCn1nnc2ccccc2c1=Nc1ccccc1
inactive: dose: 100.0 mg/kg/injection, schedule: Q04DX003 (ip), vehicle: saline 99 % of control | dose: 200.0 mg/kg/injection, schedule: Q04DX003 (ip), vehicle: saline 94 % of control | dose: 400.0 mg/kg/injection, schedule: Q04DX003 (ip), vehicle: saline 103 % of control

CS(=O)(=O)OCC(O)C(O)C(O)C(O)COS(C)(=O)=O (stereo unspecified)
inactive: dose: 100.0 mg/kg/injection, schedule: Q01DX001 (ip), vehicle: carboxymethylcellulose (CMC) 98 % of control | dose: 200.0 mg/kg/injection, schedule: Q01DX001 (ip), vehicle: carboxymethylcellulose (CMC) 92 % of control | dose: 400.0 mg/kg/injection, schedule: Q01DX001 (ip), vehicle: carboxymethylcellulose (CMC) 103 % of control

CCOC(=O)c1cnc(SC)nc1Nc1cccc(Cl)c1Cl
inactive: [5] 100 % of control | [6] 95 % of control | [7] 94 % of control

CCc1c(CNc2ccc(C(=O)NC(CCC(=O)O)C(=O)O)cc2)ccc2nc(N)nc(N)c12 (stereo unspecified)
inactive: dose: 0.12 mg/kg/injection, schedule: Q01DX003 (ip), vehicle: saline 89 % of control | dose: 4.0 mg/kg/injection, schedule: Q01DX009 (ip), vehicle: saline 88 % of control | dose: 2.5 micrograms/kg/injection, schedule: Q01DX009 (ip), vehicle: saline 101 % of control | dose: 5.0 micrograms/kg/injection, schedule: Q01DX009 (ip), vehicle: saline 111 % of control | dose: 10.0 micrograms/kg/injection, schedule: Q01DX009 (ip), vehicle: saline 113 % of control

COC(=O)C(Br)c1ccc([N+](=O)[O-])cc1 (stereo unspecified)
inactive: dose: 12.5 mg/kg/injection, schedule: Q01DX009 (ip), vehicle: saline with Tween-80 101 % of control | dose: 12.5 mg/kg/injection, schedule: Q04DX003 (ip), vehicle: saline 98 % of control | dose: 25.0 mg/kg/injection, schedule: Q01DX009 (ip), vehicle: saline with Tween-80 104 % of control | dose: 25.0 mg/kg/injection, schedule: Q04DX003 (ip), vehicle: saline 101 % of control | dose: 50.0 mg/kg/injection, schedule: Q04DX003 (ip), vehicle: saline 93 % of control

COC(=O)c1nc(Cl)nc(I)c1Cl
inactive: dose: 12.5 mg/kg/injection, schedule: Q01DX001 (ip), vehicle: other 102 % of control | dose: 25.0 mg/kg/injection, schedule: Q01DX001 (ip), vehicle: other 90 % of control

COc1ccccc1-n1c(=O)c(N=Nc2ccc(Cl)cc2)c(O)n(-c2ccccc2C)c1=S
inactive: dose: 75.0 mg/kg/injection, schedule: Q04DX003 (ip), vehicle: Klucel (hydroxypropylcellulose) (HPC) 94 % of control | dose: 150.0 mg/kg/injection, schedule: Q04DX003 (ip), vehicle: Klucel (hydroxypropylcellulose) (HPC) 107 % of control | dose: 300.0 mg/kg/injection, schedule: Q04DX003 (ip), vehicle: Klucel (hydroxypropylcellulose) (HPC) 104 % of control

Cc1ccc(-c2nn3c(-c4ccccc4)nnc3o2)cc1
inactive: [8] 97 % of control | [9] 94 % of control | [10] 102 % of control

O=C(O)C[CH2][Ge](=[O])[O][Ge](=[O])[CH2]CC(=O)O
inactive: dose: 100.0 mg/kg/injection, schedule: Q04DX002 (ip), vehicle: saline 100 % of control | dose: 200.0 mg/kg/injection, schedule: Q04DX002 (ip), vehicle: saline 103 % of control | dose: 400.0 mg/kg/injection, schedule: Q04DX002 (ip), vehicle: saline 103 % of control

O=c1oc2ccccc2c(O)c1C(c1ccc(C(c2c(O)c3ccccc3oc2=O)c2c(O)c3ccccc3oc2=O)cc1)c1c(O)c2ccccc2oc1=O
inactive: [5] 105 % of control | [6] 99 % of control | [7] 93 % of control

COc1ccccc1NC(=O)Nc1ccc(S(N)(=O)=O)cc1
inactive: dose: 100.0 mg/kg/injection, schedule: Q01DX001 (ip), vehicle: saline with Tween-80 97 % of control | [8] 101 % of control and 106 % of control | dose: 100.0 mg/kg/injection, schedule: Q04DX002 (ip), vehicle: saline with Tween-80 98 % of control and 103 % of control | dose: 100.0 mg/kg/injection, schedule: Q04DX003 (ip), vehicle: saline with Tween-80 94 % of control | dose: 200.0 mg/kg/injection, schedule: Q01DX001 (ip), vehicle: saline with Tween-80 111 % of control | [9] 98 % of control and 116 % of control | dose: 200.0 mg/kg/injection, schedule: Q04DX002 (ip), vehicle: saline with Tween-80 104 % of control | dose: 200.0 mg/kg/injection, schedule: Q04DX003 (ip), vehicle: saline with Tween-80 90 % of control | dose: 400.0 mg/kg/injection, schedule: Q01DX001 (ip), vehicle: saline with Tween-80 97 % of control | [10] 97 % of control and 98 % of control | dose: 400.0 mg/kg/injection, schedule: Q04DX002 (ip), vehicle: saline with Tween-80 95 % of control | dose: 400.0 mg/kg/injection, schedule: Q04DX003 (ip), vehicle: saline with Tween-80 100 % of control

COc1ccccc1NC(=O)Nc1ccc(Nc2ccccc2)cc1
inactive: dose: 100.0 mg/kg/injection, schedule: Q01DX009 (ip), vehicle: Klucel (hydroxypropylcellulose) (HPC) 101 % of control | [5] 103 % of control | [1] 104 % of control | [6] 91 % of control | dose: 400.0 mg/kg/injection, schedule: Q01DX009 (ip), vehicle: Klucel (hydroxypropylcellulose) (HPC) 104 % of control | [7] 97 % of control

Cc1ncccc1CCO
inactive: [2] 96 % of control | [3] 100 % of control | [4] 102 % of control
